Results as given in ChEMBL document CHEMBL4052669, “Synthesis, molecular modelling and CYP24A1 inhibitory activity of novel of (E)-N-(2-(1H-imidazol-1-yl)-2-(phenylethyl)-3/4-styrylbenzamides” (Bioorg Med Chem, 2017).

target: T1, 1,25-dihydroxyvitamin D(3) 24-hydroxylase, mitochondrial (Homo sapiens, UniProt Q07973); test: Inhibition of MBP-tagged human CYP24A1 expressed Escherichia coli BL21-Gold(DE3) incubated for 25 mins in presence of Adx, AdR 1,25(OH)2D3 and NADPH by HPLC method
T1 sequence (Q07973 whole entry): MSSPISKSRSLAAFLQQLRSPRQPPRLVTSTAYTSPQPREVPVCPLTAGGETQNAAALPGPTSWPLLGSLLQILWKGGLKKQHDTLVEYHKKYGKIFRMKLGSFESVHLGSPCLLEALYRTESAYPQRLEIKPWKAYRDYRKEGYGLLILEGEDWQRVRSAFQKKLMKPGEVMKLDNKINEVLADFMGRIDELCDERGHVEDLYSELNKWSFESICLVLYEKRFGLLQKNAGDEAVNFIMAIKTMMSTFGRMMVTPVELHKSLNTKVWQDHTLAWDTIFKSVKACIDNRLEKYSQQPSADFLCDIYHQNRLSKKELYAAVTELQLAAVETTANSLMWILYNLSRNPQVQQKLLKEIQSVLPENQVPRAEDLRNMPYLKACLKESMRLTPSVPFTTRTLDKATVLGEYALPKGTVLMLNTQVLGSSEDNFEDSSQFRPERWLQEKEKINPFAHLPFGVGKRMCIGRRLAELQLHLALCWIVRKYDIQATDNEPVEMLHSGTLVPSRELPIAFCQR

`O=C(NCC(c1ccccc1)n1ccnc1)c1cccc(/C=C/c2ccccc2C(F)(F)F)c1` (stereo not given) was tested. Which IC50 did it give?
The IC50 was 340 nM.

For `O=C(NCC(c1ccc(C(F)(F)F)cc1)n1ccnc1)c1cccc(/C=C/c2ccccc2)c1` (stereo not given), which IC50 is on record?
Its IC50 is 150 nM.

For `Cc1ccc(C(CNC(=O)c2ccc(/C=C/c3ccccc3)cc2)n2ccnc2)cc1C` (stereo not given), which IC50 is on record?
The IC50 was 310 nM.

With `O=C(NCC(c1ccccc1C(F)(F)F)n1ccnc1)c1ccc(/C=C/c2ccccc2)cc1` (stereo not given) as the molecule, how does the IC50 read?
Its IC50 is 350 nM.

With `COc1ccc(/C=C/c2ccc(C(=O)NCC(c3ccc(Cl)cc3)n3ccnc3)cc2)cc1OC` (stereo not given) as the molecule, how does the IC50 read?
Its IC50 is 120 nM.

For `O=C(NCC(c1ccc(Cl)cc1)n1ccnc1)c1ccc(/C=C/c2ccccc2)cc1` (stereo not given), which IC50 is on record?
The IC50 was 210 nM.

Which IC50 does the source give for `O=C(NCC(c1ccc(Cl)cc1)n1ccnc1)c1cccc(/C=C/c2ccccc2)c1` (stereo not given) here?
The IC50 was 160 nM.

For `O=C(NCC(c1ccc(C(F)(F)F)cc1)n1ccnc1)c1ccc(/C=C/c2ccccc2)cc1` (stereo not given), which IC50 is on record?
The IC50 was 180 nM.

`O=C(NCC(c1ccccc1)n1ccnc1)c1cccc(/C=C/c2ccccc2)c1` (stereo not given) was tested. Which IC50 did it give?
Its IC50 is 190 nM.

With `COc1ccc(C(CNC(=O)c2ccc(/C=C/c3ccccc3)cc2)n2ccnc2)cc1` (stereo not given) as the molecule, how does the IC50 read?
The IC50 was 110 nM.
